In patent US20210275521A1, “OXABICYCLOHEPTANES FOR TREATMENT OF SECONDARY ACUTE MYELOID LEUKEMIA” (Lixte Biotechnology, Inc., priority 2017, published 2021):

Legend:
[1] = system: SKM-1; assay: MTT cytotoxicity assay, SKM-1 (sAML cell line); assay type: cell-based, human; settings: for SKM-1 cell viability: 24h incubation
Method: (§1) The following five human leukemia cell lines were obtained from the Shanghai Institute of Cell Biology (Shanghai, China): Kasumi-1, HL-60, THP-1, U937 and K562. The SICM-1 leukemia cell line was acquired from the Health Science Research Resources Bank (Osaka, Japan), established from a patient with MDS that had progressed to myelomonocytic leukemia.
(§2) Cells were seeded into 96-well microtiter plates (Nunc, Roskilde, Denmark) at densities of either 1×10^5 cells/ml (established cell lines) or 5×10^5 cells/ml (primary AML cells). […] After exposure, 20 μl of 3-(4, 5-dimethylthiazol-2-yl)-2, 5-diphenylterazolium bromide solution (MTT, Sigma-Aldrich) was added to each well. The plates were then incubated for 4 h at 37° C. The MTT-containing solution was then aspirated away, 200 μI DMSO added to each well, and absorbance at 570 nm was measured.

[2] = system: SKM-1 xenografts; assay: In vivo tumorigenicity assay, SKM-1 xenograft; set-up: species or system NOD/SCID mice; settings: 2 mg/kg i.p. every other day for 14d, vs control
Method: All animal studies were performed according to the guidelines of Animal Care and Use Committee of the First Affiliated Hospital of Zhejiang University and met the NIH guidelines for the care and use of laboratory animals. And all animal studies were approved by IACUC committee of the First Affiliated Hospital of Zhejiang University. Nonobese diabetic/severe combined immunodeficiency (NOD/SCID) mice aged 6 weeks were purchased from the Shanghai Experimental Animal Center of the Chinese Academy of Sciences (Shanghai, China). SKM-1 cells (5×106 in 100 μl PBS) were injected subcutaneously into the right flank of each mouse. By 10-14d, when the tumor volumes had reached 90-110 mm3, the mice were randomly divided into four groups: DNR LB100, DNR only, LB100 only, and control. Mice were injected intraperitoneally (i.p.) with 2 mg/kg DNR and/or 2 mg/kg LB100, every other day for a total of 14d. Control mice were injected with an equal volume of PBS. Tumor size was monitored every 3d based on caliper measurements of the two perpendicular diameters; tumor volume was calculated using the formula V=(width′×length×it/6).

[3] = system: Kasumi-1; assay: MTT cytotoxicity assay, Kasumi-1; assay type: cell-based; settings: Homo sapiens; Kasumi-1, at 4 h after treatment
Method: as §1
(§3) Cells were seeded into 96-well microtiter plates (Nunc, Roskilde, Denmark) at densities of either 1×10^5 cells/ml (established cell lines) or 5×10^5 cells/ml (primary AML cells). Cultures were exposed to different drugs for 24 h. After exposure, 20 μl of 3-(4, 5-dimethylthiazol-2-yl)-2, 5-diphenylterazolium bromide solution (MTT, Sigma-Aldrich) was added to each well. The plates were then incubated for 4 h at 37° C. The MTT-containing solution was then aspirated away, 200 μI DMSO added to each well, and absorbance at 570 nm was measured.

[4] = system: HL-60; assay: MTT cytotoxicity assay, HL-60; assay type: cell-based; settings: Homo sapiens; HL-60, at 4 h after treatment
Method: as §1, §2

[5] = system: THP-1; assay: MTT cytotoxicity assay, THP-1; assay type: cell-based; settings: Homo sapiens; THP-1, at 4 h after treatment
Method: as §1, §2

[6] = system: U937; assay: MTT cytotoxicity assay, U937; assay type: cell-based; settings: Homo sapiens, U-937; U937, at 4 h after treatment
Method: as §1, §2

[7] = system: K562; assay: MTT cytotoxicity assay, K562; assay type: cell-based; settings: Homo sapiens; K562, at 4 h after treatment
Method: as §1, §3

[8] = system: SKM-1 cells; assay: Leukemia colony-forming assay; assay type: cell-based, human; settings: 7 days in methylcellulose medium
Method: LB100-treated SKM-1 cells were seeded in a methylcellulose medium and incubated for 7 d at 37° C. The number of leukemia colony-forming units (CFU-Ls) containing >50 cells were determined manually under a light microscope (Olympus).

[9] = molecular target: T1, PP2A (Homo sapiens, UniProt P67775); assay: PP2A phosphatase activity assay in SKM-1 cells; assay type: cell-based; settings: 10 μM LB100, SKM-1 cells
T1 construct: endogenous in cells; host or cells: SKM-1 cells (lysate, immunoprecipitated with Millipore kit)
T1 sequence (P67775 whole entry): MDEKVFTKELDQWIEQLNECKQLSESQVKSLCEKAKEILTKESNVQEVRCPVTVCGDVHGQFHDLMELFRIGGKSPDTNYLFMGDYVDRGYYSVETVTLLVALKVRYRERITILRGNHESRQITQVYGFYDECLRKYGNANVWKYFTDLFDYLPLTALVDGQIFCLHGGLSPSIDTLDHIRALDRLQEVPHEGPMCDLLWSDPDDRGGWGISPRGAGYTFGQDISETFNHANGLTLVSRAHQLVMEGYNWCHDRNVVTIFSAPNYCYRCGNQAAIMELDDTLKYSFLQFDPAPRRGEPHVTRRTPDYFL
T1 sequence (P30153 2-589 partner limits assumed): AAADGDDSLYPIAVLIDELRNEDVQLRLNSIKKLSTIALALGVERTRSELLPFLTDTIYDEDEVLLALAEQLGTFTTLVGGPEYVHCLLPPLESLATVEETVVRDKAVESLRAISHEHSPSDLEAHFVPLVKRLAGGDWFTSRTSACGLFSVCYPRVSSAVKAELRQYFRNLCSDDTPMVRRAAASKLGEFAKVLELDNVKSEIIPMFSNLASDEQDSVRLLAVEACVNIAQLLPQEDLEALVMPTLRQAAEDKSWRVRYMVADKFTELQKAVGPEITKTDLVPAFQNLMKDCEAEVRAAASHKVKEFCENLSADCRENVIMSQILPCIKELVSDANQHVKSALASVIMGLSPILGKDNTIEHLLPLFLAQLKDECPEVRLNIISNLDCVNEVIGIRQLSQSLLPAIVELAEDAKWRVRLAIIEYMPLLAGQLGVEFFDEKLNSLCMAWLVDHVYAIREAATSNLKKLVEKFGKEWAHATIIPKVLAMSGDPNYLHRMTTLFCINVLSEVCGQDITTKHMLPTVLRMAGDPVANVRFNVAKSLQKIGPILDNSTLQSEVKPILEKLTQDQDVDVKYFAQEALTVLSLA
Method: 1×IV SKM-1 cells were seeded into 6-well microtiter plates and treated with different concentrations of LB100 (0, 1.25, 2.5, 5, 10 μNI). […] Cell lysate was sonicated for 10 seconds and then centrifuged at 20,000 g for 15 minutes. Supernatant was then assayed with the PP2A Immunoprecipitation Phosphatase Assay Kit (Millipore, Mass., USA).

[10] = system: SKM-1 cells; assay: Western blotting of SKM-1 cells; assay type: cell-based, human
Method: Cells were washed twice in PBS and lysed in 10 mM Tris, 1 mM ethylenediaminetetra-acetic acid (EDTA), 10 mM KCl, 0.3% Triton, and 0.1 mM phenylmethanesulfonyl fluoride (PMSF). Equal amounts of protein (30-50 μg) were separated on 8-12% SDS-polyacrylamide gels, and transferred to polyvinylidene fluoride (PVDF) membranes. Membranes were blocked with 5% non-fat milk and incubated overnight with the appropriate primary antibody at manufacturer-specified dilutions. Primary monoclonal antibodies were against I3-ACTIN (Santa Cruz Biotechnology, CA, USA); CDCl25C, p-CDCl25C, CDCl2, p-CDCl2, PP2A-A, PP2A-B, PP2A-C (Epitomics, USA); AKT, p-AKT, PARP, RAS, p-MEK, p-ERK, Raf, p-CamKII, Bc.1-2 and p-Bd-2 (Cell Signaling Technology, MA, USA).
Next, the membranes were washed three times in TBS-T buffer (10 mm Tris-HCl, pH 8, 150 mm NaCl, 0.1% Tween 20), and incubated for 1 h with the corresponding horseradish peroxidase (HRP)-conjugated secondary antibody at 1:5,000 dilution. Bound secondary antibody was detected using an enhanced chemiluminescence (ECL) system (Pierce Biotechnology, IL, USA).

[11] = system: SKM-1 cells; assay: Cell cycle analysis by flow cytometry; assay type: cell-based, human; settings: 12 h exposure at 5 μM
Method: Cells were collected after being fixed overnight in 75% ethanol at −20° C. Fixed cells were washed twice with PBS, then incubated for 30 min with RNase A and propidium iodide (10 μg/ml). Cell cycle analysis was performed using a BDL SRII Flow Cytometer and FACSDiva Software (BD Bioscience, Franklin Lakes, USA). Raw data was analyzed using ModFit LT 3.2 software (Verity Software House, Topsham, USA).

[12] = system: SKM-1 cells; assay: Annexin V and propidium iodide flow-cytometry apoptosis assay; assay type: cell-based, human; settings: for rate of apoptosis: LB100 10 μM 24 h
Method: Cells were seeded into 6-well plates, and treated for 24h at 37° C. with different concentrations of LB100 (0, 1.25, 2.5, 5,10 μM). After washing with PBS, aliquots of the cells were resuspended in binding buffer, and stained with 5 μl Annexin V and 5 μl propidium iodide (Biouniquer, Nanjing, China) according to the manufacturer's instructions. Fluorescence-activated cell sorting (FACS) was then performed immediately after staining.
Cells (5×10^5 cells/well) were pre-incubated for 3 h at 37° C. in the presence or absence of 20 KM of the pan-caspase inhibitor z-VAD-fmk (R&D Systems, MN, USA) in DMSO. Cells were then treated with LB100 for 24h, and processed in the Annexin V-binding assay as described above.

[13] = system: SKM-1 cells; assay: Hoechst staining of nuclear morphology; assay type: cell-based, human; settings: 24 h, varying doses
Method: SKM-1 cells were treated with LB100 for 24 h. Cells were then permeabilized with 0.5% Triton X-100 for 30 min, washed with PBS, stained with 10 μg/ml Hoechst for 30 min, and washed with PBS. Nuclear morphology was observed immediately after using a BX51 fluorescence microscope (Olympus, Tokyo, Japan).

[14] = system: miR-181b-1; assay: MicroRNA microarray analysis; assay type: cell-based, human; settings: SKM-1, exposure 12h
Text: Total RNA was extracted from SKM-1 and LB100-treated-SKM-1 cells using the RNeasy mini kit (Qiagen, Calif., USA) according to the manufacturer's instructions. The miRNA microarray analysis was done by KangChen (Shanghai, China).

[15] = system: miR-181b-1; assay: Quantitation of miR-181b-1 by real-time quantitative RT-PCR; assay type: cell-based, human; settings: SKM-1, normalized to U6 RNA, vs control
Text: Total miRNA was extracted from 1×10^6 SKM-1 cells using the RNAiso kit for small RNA (TaKaRa, Japan), and reverse-transcribed using the One Step PrimeScript miRNA cDNA Synthesis Kit (TaKaRa, Japan). The resulting cDNA was quantified using the iCycler Real-time PCR Detection System (BioRad, Calif., USA) and SYBR Green (Takara, Japan). The expression of miR-181b-1 was quantified relative to the expression of human U6 small nuclear RNA using the 2-°° c.′ method.

[16] = system: Bcl-2; assay: Immunohistochemistry staining of SKM-1 xenograft for Bcl-2; set-up: species or system NOD/SCID mice; settings: in-vivo
Method: Immunohistochemical staining was performed on the paraffin-embedded sections. Tissue sections were dewaxed and rehydrated before performing antigen retrieval. Anti-BCL-2 (Cell Signaling Technology, MA, USA) were applied at 1:100 dilution in PBS to incubate slides overnight at 4° C., and incubated with an HRP-conjugated secondary antibody for 1 hat room temperature. DAB was used for color development, and dark brown staining was considered positive. All slides were photographed with optical microscopy Olympus BX51.

COc1cccc2c1C(=O)c1c(O)c3c(c(O)c1C2=O)C[C@@](O)(C(C)=O)C[C@@H]3O[C@H]1C[C@H](N)[C@H](O)[C@H](C)O1 [DNR, Daunorubicin, reference compound]
SKM-1 cell viability [1]: significantly diminished in a dose-dependent manner
tumor volume [2]: sharp decrease

CN1CCN(C(=O)C2C(C(=O)O)[C@H]3CC[C@@H]2O3)CC1 (stereo partly drawn) [LB100]
IC50 [3]: 4.38 µM
IC50 [4]: 3.36 µM
IC50 [5]: 13.5 µM
IC50 [6]: 3.44 µM
IC50 [7]: 7 µM
SKM-1 cell viability [1]: significantly diminished in a dose-dependent manner
IC50 ([1]; Homo sapiens, SKM-1, at 4 h after treatment): 5.35 µM
growth of SKM-1 cells, colony formation [8]: dose-dependent inhibitory activity
reduction of the activity of PP2A [9]: up to 60%
CDCl2 and CDCl25C total- and phosphorylated-protein levels ([10]; 5 μM LB100, SKM-1): markedly downregulated
phosphorylated Bcl-2 and CamKII ([10]; after LB100 administration): increased
caspase-3 and PARP cleavage ([10]; immunoblotting, 24h exposure, SKM-1): cleavage in a concentration-dependent manner
Bcl-2 expression, immunoblot ([10]; in-vitro, SKM-1, 5 μM LB100): markedly downregulated
expression of the three PP2A subunits (PP2A-A, PP2A-B, PP2A-C) ([10]; western blot, 5 μM LB100 for 12 h): moderately decreased
levels of p-AKT ([10]; western blot, sAML cells): increased
G2/M phase cells ([11]; SKM-1 (13.4% before)): 31.5%
G0/G1 phase cells ([11]; SKM-1 (36.7% before)): 9.8%
fraction of apoptotic sAML cells ([12]; 1.25 μM, 24h (3.13% in the absence of LB100)): 8.51%
fraction of apoptotic sAML cells ([12]; 2.5 μM, 24h): 13.61%
fraction of apoptotic sAML cells ([12]; 5 μM, 24h): 37%
fraction of apoptotic sAML cells ([12]; 10 μM, 24h): 65.27%
rate of apoptosis ([12]; absence of z-VAD-FMK): 62%
rate of apoptosis ([12]; presence of pan-caspase inhibitor z-VAD-FMK): 16%
nuclear morphology after Hoechst staining [13]: increased amounts of condensed, pyknotic nudei
tumor volume [2]: sharp decrease
miR-181b-1 in microRNA profiling [14]: significantly up-regulated
relative expression of miR-181b-1, increase [15]: about 2 fold
Bcl-2 expression, immunohistochemistry [16]: markedly downregulated
